Assay results as given in US20260092074A1, “Annelated Pyridines as Steroidogenesis Inhibitors, Preparation Method and Use Thereof” (Guangzhou Vinnocent Pharmaceutical Limited, priority 2022, published 2026).

Key:
[1] = biological target: T1, human CYP11B2 (Homo sapiens, UniProt P19099); experiment: Inhibition of hCYP11B2 in transfected V79 cells; assay type: cell-based; conditions: hamster V79 cells expressing human CYP11B2; substrate 11-deoxycorticosterone 200 nM
T1 construct: expressed in transfected cells
T1 sequence (P19099 25-503): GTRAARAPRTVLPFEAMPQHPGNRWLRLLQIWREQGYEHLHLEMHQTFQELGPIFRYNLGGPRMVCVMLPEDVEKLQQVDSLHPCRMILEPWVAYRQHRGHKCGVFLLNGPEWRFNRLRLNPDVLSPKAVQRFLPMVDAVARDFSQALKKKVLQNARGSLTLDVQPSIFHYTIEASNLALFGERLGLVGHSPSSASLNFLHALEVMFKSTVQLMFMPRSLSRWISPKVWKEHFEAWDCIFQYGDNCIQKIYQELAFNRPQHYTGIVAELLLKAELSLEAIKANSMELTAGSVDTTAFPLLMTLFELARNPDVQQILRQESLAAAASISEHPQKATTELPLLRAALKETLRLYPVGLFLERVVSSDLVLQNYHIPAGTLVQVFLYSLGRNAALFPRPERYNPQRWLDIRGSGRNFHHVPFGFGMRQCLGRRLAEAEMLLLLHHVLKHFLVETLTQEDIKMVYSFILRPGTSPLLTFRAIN
In short: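 The substrate (200 nM, 30 min) was added after a 2 hour compound pre-incubation in lentivirus-transduced V79 cells stably expressing human CYP11B2 plus rat NADPH-P450 reductase.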

[2] = biological target: T2, human CYP11B1 (Homo sapiens, UniProt P15538); experiment: Inhibition of hCYP11B1 in transfected V79 cells; assay type: cell-based; conditions: hamster V79 cells expressing human CYP11B1; substrate 11-deoxycortisol 200 nM
T2 construct: expressed in transfected cells
T2 sequence (P15538 25-503): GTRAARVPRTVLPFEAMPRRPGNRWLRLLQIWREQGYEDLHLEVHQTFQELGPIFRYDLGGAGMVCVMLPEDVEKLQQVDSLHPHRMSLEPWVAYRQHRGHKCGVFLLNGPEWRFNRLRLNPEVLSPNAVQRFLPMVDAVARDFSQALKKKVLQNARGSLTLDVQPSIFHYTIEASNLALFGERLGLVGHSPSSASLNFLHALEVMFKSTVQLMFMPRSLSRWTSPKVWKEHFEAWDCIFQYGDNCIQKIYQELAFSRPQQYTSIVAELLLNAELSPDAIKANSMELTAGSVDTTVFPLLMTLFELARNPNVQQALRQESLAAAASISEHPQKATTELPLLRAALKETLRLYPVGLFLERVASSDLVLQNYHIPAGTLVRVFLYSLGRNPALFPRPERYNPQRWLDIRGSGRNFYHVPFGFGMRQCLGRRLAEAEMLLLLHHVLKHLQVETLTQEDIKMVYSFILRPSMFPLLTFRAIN
In short: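 Reactions started with 200 nM 11-deoxycortisol, ran for 30 min and were stopped with ethyl acetate, after a 2 h compound preincubation. The host was stably transfected V79 hamster cells carrying human CYP11B1 plus rat P450 reductase. Percent inhibition, from LC-MS/MS or HPLC (260 nm) quantitation of substrate and product, gave the IC50.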

IC50 [1]	IC50 [2]	Structure (SMILES)
5.2 nM	51 nM	N#Cc1ccc(-c2cncc3c2SCCN3S(=O)(=O)c2cccc3ccccc23)cc1 [S22, 4-(4-(Naphthalen-1-ylsulfonyl)-3,4-dihydro-2H-pyrido[4,3-b][1,4]thiazin-8-yl)benzonitrile]
43 nM	2850 nM	Cc1ccc(C(=O)N2CCSc3c(-c4ccc(C#N)cc4)cncc32)cc1 [S89, 4-(4-(4-Methylbenzoyl)-3,4-dihydro-2H-pyrido[4,3-b][1,4]thiazin-8-yl)benzonitrile]
0.3 nM	0.5 nM	N#Cc1ccc(-c2cncc3c2CCN3S(=O)(=O)c2cccc([N+](=O)[O-])c2)cc1 [C9, 4-(1-((3-Nitrophenyl)sulfonyl)-2,3-dihydro-1H-pyrrolo[2,3-c]pyridin-4-yl)benzonitrile]
0.48 nM	0.31 nM	N#Cc1ccc(-c2cncc3c2OCCN3S(=O)(=O)c2cccnc2)cc1 [O13, 4-(4-(Pyridin-3-ylsulfonyl)-3,4-dihydro-2H-pyrido[4,3-b][1,4]oxazin-8-yl)benzonitrile]
0.1 nM	0.6 nM	N#Cc1ccc(-c2cncc3c2ccn3S(=O)(=O)c2ccc3ccccc3c2)cc1 [E16, 4-(1-(Naphthalen-2-ylsulfonyl)-1H-pyrrolo[2,3-c]pyridin-4-yl)benzonitrile]
45 nM	1570 nM	CC(C)(C)C(=O)N1CCc2c(-c3ccc(C#N)cc3)cncc21 [C42, 4-(1-Pivaloyl-2,3-dihydro-1H-pyrrolo[2,3-c]pyridin-4-yl)benzonitrile]
45 nM	3470 nM	N#Cc1ccc(-c2cncc3c2OCCN3C(=O)N2CC3(CN(Cc4cccc(F)c4)C3)C2)cc1 [O73, 4-(4-(6-(3-Fluorobenzyl)-2,6-diazaspiro[3.3]heptane-2-carbonyl)-3,4-dihydro-2H-pyrido[4,3-b][1,4]oxazin-8-yl)benzonitrile]
5.3 nM	258 nM	Cc1ccccc1CC(=O)N1CCc2c(-c3ccc(C#N)cc3)cncc21 [C64, 4-(1-(2-(o-Tolyl)acetyl)-2,3-dihydro-1H-pyrrolo[2,3-c]pyridin-4-yl)benzonitrile]
5 nM	375 nM	O=C(c1ccc(F)cc1)n1ccc2c(-c3cc4ccccc4[nH]3)cncc21 [E34, (4-(1H-Indol-2-yl)-1H-pyrrolo[2,3-c]pyridin-1-yl)(4-fluorophenyl)methanone]
4.6 nM	64 nM	N#Cc1ccc(-c2cncc3c2OCCN3C(=O)C2CN(c3ccc(F)cc3)C2)cc1 [O85, 4-(4-(1-(4-Fluorophenyl)azetidine-3-carbonyl)-3,4-dihydro-2H-pyrido[4,3-b][1,4]oxazin-8-yl)benzonitrile]
655 nM	661 nM	Cn1cnc2cncc(-c3ccc(C#N)cc3)c21 [N6, 4-(1-Methyl-1H-imidazo[4,5-c]pyridin-7-yl)benzonitrile]
0.4 nM	36 nM	N#Cc1ccc(CN2CC(S(=O)(=O)N3CCOc4c(-c5ccc(C#N)cc5)cncc43)C2)cc1 [O121, 4-(4-((1-(4-Cyanobenzyl)azetidin-3-yl)sulfonyl)-3,4-dihydro-2H-pyrido[4,3-b][1,4]oxazin-8-yl)benzonitrile]
593 nM	746 nM	Cn1c(=O)c(=O)[nH]c2cncc(-c3ccc(F)cc3)c21 [N2, 8-(4-Fluorophenyl)-1-methyl-1,4-dihydropyrido[3,4-b]pyrazine-2,3-dione]
2 nM	195 nM	COc1ccc(C(=O)N2CC(C(=O)N3CCOc4c(-c5ccc(C#N)cc5)cncc43)C2)cc1 [O77, 4-(4-(1-(4-Methoxybenzoyl)azetidine-3-carbonyl)-3,4-dihydro-2H-pyrido[4,3-b][1,4]oxazin-8-yl)benzonitrile]
0.18 nM	0.74 nM	N#Cc1ccc(-c2cncc3c2OCCN3S(=O)(=O)c2cccc(C(F)(F)F)c2)cc1 [O12, 4-(4-((3-(Trifluoromethyl)phenyl)sulfonyl)-3,4-dihydro-2H-pyrido[4,3-b][1,4]oxazin-8-yl)benzonitrile]
2.8 nM	276 nM	N#Cc1ccc(-c2cncc3c2OCCN3C(=O)CNC(=O)c2ccc(F)cc2)cc1 [O59, N-(2-(8-(4-Cyanophenyl)-2,3-dihydro-4H-pyrido[4,3-b][1,4]oxazin-4-yl)-2-oxoethyl)-4-fluorobenzamide]
46 nM	782 nM	N#Cc1ccc(S(=O)(=O)N2CCSc3c(-c4ccc5occc5c4)cncc32)cc1 [S44, 4-((8-(Benzofuran-5-yl)-2,3-dihydro-4H-pyrido[4,3-b][1,4]thiazin-4-yl)sulfonyl)benzonitrile]
5.9 nM	1710 nM	N#Cc1ccc(-c2cncc3c2OCCN3C(=O)c2cccc(Cl)c2)cc1 [O29, 4-(4-(3-Chlorobenzoyl)-3,4-dihydro-2H-pyrido[4,3-b][1,4]oxazin-8-yl)benzonitrile]
25 nM	245 nM	Cc1ccc(C(=O)N2CCc3c(-c4ccc(C#N)cc4)cncc32)cc1 [C33, 4-(1-(4-Methylbenzoyl)-2,3-dihydro-1H-pyrrolo[2,3-c]pyridin-4-yl)benzonitrile]
2.5 nM	55 nM	N#Cc1ccc(-c2cncc3c2OCCN3C(=O)C2CN(c3ccc(C#N)cc3)C2)cc1 [O87, 4-(3-(8-(4-Cyanophenyl)-3,4-dihydro-2H-pyrido[4,3-b][1,4]oxazine-4-carbonyl)azetidin-1-yl)benzonitrile]
2.7 nM	496 nM	COc1ccc(S(=O)(=O)N2CC(C(=O)N3CCOc4c(-c5ccc(C#N)cc5)cncc43)C2)cc1 [O67, 4-(4-(1-((4-Methoxyphenyl)sulfonyl)azetidine-3-carbonyl)-3,4-dihydro-2H-pyrido[4,3-b][1, 4]oxazin-8-yl)benzonitrile]
3 nM	537 nM	COc1cccc(C(=O)N2CCc3c(C4=CCN(C#N)CC4)cncc32)c1 [C82, 4-(1-(3-Methoxybenzoyl)-2,3-dihydro-1H-pyrrolo[2,3-c]pyridin-4-yl)-3,6-dihydropyridine-1 (2H)-carbonitrile]
0.5 nM	41 nM	Cn1ccc(S(=O)(=O)N2CCSc3c(-c4cc5cc(Cl)ccc5o4)cncc32)n1 [S56, 8-(5-Chlorobenzofuran-2-yl)-4-((1-methyl-1H-pyrazol-3-yl)sulfonyl)-3,4-dihydro-2H-pyrido[4,3-b][1,4]thiazine]
0.1 nM	0.7 nM	N#Cc1ccc(-c2cncc3c2ccn3S(=O)(=O)c2cccs2)cc1 [E17, 4-(1-(Thiophen-2-ylsulfonyl)-1H-pyrrolo[2,3-c]pyridin-4-yl)benzonitrile]
0.12 nM	0.35 nM	COc1ccc(S(=O)(=O)N2CCSc3c(-c4ccc(C#N)c(F)c4)cncc32)cc1 [S35, 2-Fluoro-4-(4-((4-methoxyphenyl)sulfonyl)-3,4-dihydro-2H-pyrido[4,3-b][1,4]thiazin-8-yl) benzonitrile]
1.5 nM	0.18 nM	N#Cc1ccc(-c2cncc3c2CCN3S(=O)(=O)c2cccc(C#N)c2)cc1 [C16, 3-((4-(4-Cyanophenyl)-2,3-dihydro-1H-pyrrolo[2,3-c]pyridin-1-yl)sulfonyl)benzonitrile]
9 nM	53 nM	N#Cc1ccc(-c2cncc3c2CCN3C(=O)Cc2cccc(C(F)(F)F)c2)cc1 [C74, 4-(1-(2-(3-(Trifluoromethyl)phenyl)acetyl)-2,3-dihydro-1H-pyrrolo[2,3-c]pyridin-4-yl)benzonitrile]
0.41 nM	2.8 nM	N#Cc1ccc(-c2cncc3c2OCCN3S(=O)(=O)c2cccc([N+](=O)[O-])c2)cc1 [O10, 4-(4-((3-Nitrophenyl)sulfonyl)-3,4-dihydro-2H-pyrido[4,3-b][1,4]oxazin-8-yl)benzonitrile]
29 nM	352 nM	Cc1cccc(C(=O)N2CCc3c(-c4ccc(C#N)cc4)cncc32)c1 [C40, 4-(1-(3-Methylbenzoyl)-2,3-dihydro-1H-pyrrolo[2,3-c]pyridin-4-yl)benzonitrile]
38 nM	2660 nM	N#Cc1ccc(C(=O)N2CCSc3c(-c4ccc(C#N)cc4)cncc32)cc1 [S94, 4-(4-(4-Cyanobenzoyl)-3,4-dihydro-2H-pyrido[4,3-b][1,4]thiazin-8-yl)benzonitrile]
